Experiment [1] has as its target T1, Gonadotropin-releasing hormone receptor (Homo sapiens, UniProt P30968).
T1 sequence (P30968 whole entry): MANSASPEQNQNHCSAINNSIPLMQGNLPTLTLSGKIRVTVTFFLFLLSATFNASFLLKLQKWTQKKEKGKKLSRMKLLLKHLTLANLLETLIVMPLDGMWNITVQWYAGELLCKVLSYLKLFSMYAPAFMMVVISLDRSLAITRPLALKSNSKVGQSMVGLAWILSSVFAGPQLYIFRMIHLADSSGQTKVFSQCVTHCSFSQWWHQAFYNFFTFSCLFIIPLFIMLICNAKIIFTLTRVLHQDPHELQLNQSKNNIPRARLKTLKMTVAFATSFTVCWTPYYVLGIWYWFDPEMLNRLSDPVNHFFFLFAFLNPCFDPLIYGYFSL
In words: Inhibition of GnRH-stimulated phosphatidyl inositol hydrolysis in CHO cells expressing GnRH receptor. It is filed as functional, cell-based.

Experiment [2] deals with T1, Gonadotropin-releasing hormone receptor. In words: Binding affinity towards human gonadotropin releasing hormone receptor expressed in CHO cells was determined by using [125I]-buserelin as radioligand. The experiment is classed as cell-based.

As to `Cc1cc(-c2c(OCC[C@@H]3CCN3)c3cc(C(=O)Nc4ccncn4)c(Cl)cc3[nH]c2=O)cc(C)c1C`, the IC50 (commonly the midpoint of a concentration-inhibition curve) in experiment [1] was 0.9 nM.

`Cc1cc(-c2c(OCCC3CCCO3)c3cc(C(=O)Nc4ccncn4)c(Cl)cc3[nH]c2=O)cc(C)c1C` (stereo not given): the IC50 came out at 0.6 nM in experiment [2] and 3.3 nM in experiment [1].

As to `Cc1cc(-c2c(O)nc3cc(Cl)c(C(=O)Nc4cnsn4)cc3c2OCCC2CCCC2)cc(C)c1C`, the IC50 in experiment [2] stood at 243 nM; in experiment [1], 1150 nM.

Take `Cc1cc(-c2c(O)nc3cc(Cl)c(C(=O)Nc4cnsn4)cc3c2OCC[C@H]2CCC(=O)N2C)cc(C)c1C`: the IC50 amounted to 1.4 nM in experiment [2] and 11 nM in experiment [1].

As to `Cc1cc(-c2c(O)nc3cc(Cl)c(C(=O)Nc4cnsn4)cc3c2OCCC2OCCO2)cc(C)c1C`, the IC50 in experiment [2] was found to be 0.6 nM; in experiment [1], 67 nM.

With `Cc1cc(-c2c(OCCC3CC4CCN3CC4)c3cc(C(=O)Nc4cnsn4)c(Cl)cc3[nH]c2=O)cc(C)c1C` (stereo not given), the figures for the IC50 in experiment [2] and in experiment [1] were 0.6 nM and 5.8 nM, respectively.

Regarding `Cc1cc(-c2c(O)nc3cc(Cl)c(C(=O)Nc4ccncn4)cc3c2OCC[C@@H]2CCC[C@H](C(F)(F)F)N2)cc(C)c1C`, the IC50 in experiment [2] turned out to be 2 nM; in experiment [1], 18 nM.

Take `Cc1cc(-c2c(OCC[C@@H]3CCN3)c3cc(C(=O)Nc4cnsn4)c(Cl)cc3[nH]c2=O)cc(C)c1C`: the concentration for half-maximal inhibition (IC50) amounted to 0.32 nM in experiment [2] and 0.8 nM in experiment [1].

Regarding `Cc1cc(-c2c(O)nc3cc(Cl)c(C(=O)Nc4ccncn4)cc3c2OCC[C@@H]2CCCN2)cc(C)c1C`, the IC50 in experiment [2] amounted to 0.8 nM; in experiment [1] it was 2.2 nM.

Take `Cc1cc(-c2c(O)nc3cc(Cl)c(C(=O)Nc4cnsn4)cc3c2OCC[C@H]2CCO2)cc(C)c1C`: the values for the IC50 in experiment [2] and in experiment [1] were 0.9 nM and 49 nM, respectively.

Regarding `Cc1cc(-c2c(O)nc3cc(Cl)c(C(=O)Nc4cnsn4)cc3c2OCC[C@H]2CCC(=O)N2)cc(C)c1C`, the IC50 was determined as 0.3 nM in experiment [2] and 0.7 nM in experiment [1].

With `Cc1cc(-c2c(O)nc3cc(Cl)c(C(=O)Nc4ccncn4)cc3c2OCC[C@@H]2CCC[C@H](C(F)(F)F)N2C)cc(C)c1C`, the IC50 in experiment [2] is 2 nM; in experiment [1] it was 18 nM.

`Cc1cc(-c2c(OCCC3COCCN3)c3cc(C(=O)Nc4cnsn4)c(Cl)cc3[nH]c2=O)cc(C)c1C` (stereo not given): the IC50 amounted to 0.7 nM in experiment [2] and 32 nM in experiment [1].

`Cc1cc(-c2c(OCC[C@@H]3CCCCN3)c3cc(C(=O)Nc4cnsn4)c(Cl)cc3[nH]c2=O)cc(C)c1C`: the figures for the 50% inhibitory concentration (IC50) in experiment [2] and in experiment [1] were 0.55 nM and 1.6 nM, respectively.

For the molecule `Cc1cc(-c2c(OCC[C@H]3CC(=O)N3)c3cc(C(=O)Nc4cnsn4)c(Cl)cc3[nH]c2=O)cc(C)c1C`, the figures for the IC50 in experiment [2] and in experiment [1] were 0.1 nM and 1.3 nM, respectively.

In the case of `Cc1cc(-c2c(OCC[C@@H]3CCCCN3)c3cc(C(=O)Nc4ccncn4)c(Cl)cc3[nH]c2=O)cc(C)c1C`, half-maximal inhibition in experiment [1] (IC50) required 2.2 nM.

The record behind these values is ChEMBL document CHEMBL1138029, “Identification of neutral 4-O-alkyl quinolone nonpeptide GnRH receptor antagonists” (Bioorg Med Chem Lett, 2004).
